Assay results as given in PubChem BioAssay AID2060511 (Molecular Pharmacology Branch, DTP, NCI, 2025).

Test system: 422866-222-R5-J1-PDC spheroids with HUVEC/MSC, viability
Test: Anticancer human tumor 422866-222-R5-J1-PDC patient-derived pancreatic adenocarcinoma cell line growth inhibition [GQUAD]
Conditions: for IC50: curve of first compound; for viability, T/C: stronger effect = lower value
Summary of the method: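 Tumor cells were grown as complex spheroids with HUVEC endothelial cells and mesenchymal stem cells as stroma. G-quadruplex stabilizers were combined with targeted agents over half-log dilutions from near the clinical Cmax, or from 10 microM.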

[1] = second compound 0.0316 µM, first compound 0.0316 µM
[2] = second compound 0.0316 µM, first compound 0.1 µM
[3] = second compound 0.0316 µM, first compound 0.316 µM
[4] = second compound 0.0316 µM, first compound 1 µM
[5] = second compound 0.0316 µM, first compound 3.16 µM
[6] = second compound 0.0316 µM, first compound 10 µM
[7] = second compound 0.1 µM, first compound 0.0316 µM
[8] = second compound 0.1 µM, first compound 0.1 µM
[9] = second compound 0.1 µM, first compound 0.316 µM
[10] = second compound 0.1 µM, first compound 1 µM
[11] = second compound 0.1 µM, first compound 3.16 µM
[12] = second compound 0.1 µM, first compound 10 µM
[13] = second compound 0.316 µM, first compound 0.0316 µM
[14] = second compound 0.316 µM, first compound 0.1 µM
[15] = second compound 0.316 µM, first compound 0.316 µM
[16] = second compound 0.316 µM, first compound 1 µM
[17] = second compound 0.316 µM, first compound 3.16 µM
[18] = second compound 0.316 µM, first compound 10 µM
[19] = second compound 1 µM, first compound 0.0316 µM
[20] = second compound 1 µM, first compound 0.1 µM
[21] = second compound 1 µM, first compound 0.316 µM
[22] = second compound 1 µM, first compound 1 µM
[23] = second compound 1 µM, first compound 3.16 µM
[24] = second compound 1 µM, first compound 10 µM
[25] = second compound 3.16 µM, first compound 0.0316 µM
[26] = second compound 3.16 µM, first compound 0.1 µM
[27] = second compound 3.16 µM, first compound 0.316 µM
[28] = second compound 3.16 µM, first compound 1 µM
[29] = second compound 3.16 µM, first compound 3.16 µM
[30] = second compound 3.16 µM, first compound 10 µM
[31] = second compound 10 µM, first compound 0.0316 µM
[32] = second compound 10 µM, first compound 0.1 µM
[33] = second compound 10 µM, first compound 0.316 µM
[34] = second compound 10 µM, first compound 1 µM
[35] = second compound 10 µM, first compound 3.16 µM
[36] = second compound 10 µM, first compound 10 µM
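Note: spheroids exposed to compounds for seven days before reading.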
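Throughout, for viability, T/C: percent viability relative to DMSO vehicle control taken as 100%.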

CC(C)n1c(=O)n(C)c2cnc3cc(F)c(-c4ccc(OCCCN5CCCCC5)nc4)cc3c21 + Cc1[nH]c2ccc(F)cc2c1-c1nc2c3cccnc3c3ncccc3c2[nH]1
IC50 (second compound 0.0316 µM): > 10 µM | IC50 (second compound 0.1 µM): > 10 µM | IC50 (second compound 0.316 µM): > 10 µM | IC50 (second compound 1 µM): > 10 µM | IC50 (second compound 3.16 µM): > 10 µM | IC50 (second compound 10 µM): > 10 µM | viability, T/C [1]: 86.9% | viability, T/C [2]: 99.4% | viability, T/C [3]: 94% | viability, T/C [4]: 91.1% | viability, T/C [5]: 89.2% | viability, T/C [6]: 52% | viability, T/C [7]: 99.4% | viability, T/C [8]: 114% | viability, T/C [9]: 112% | viability, T/C [10]: 83.2% | viability, T/C [11]: 113% | viability, T/C [12]: 73.5% | viability, T/C [13]: 93.8% | viability, T/C [14]: 90.6% | viability, T/C [15]: 102% | viability, T/C [16]: 92.1% | viability, T/C [17]: 92.2% | viability, T/C [18]: 68.5% | viability, T/C [19]: 95.4% | viability, T/C [20]: 89.2% | viability, T/C [21]: 91.3% | viability, T/C [22]: 91.9% | viability, T/C [23]: 117% | viability, T/C [24]: 64.9% | viability, T/C [25]: 78.3% | viability, T/C [26]: 88.2% | viability, T/C [27]: 105% | viability, T/C [28]: 94.7% | viability, T/C [29]: 98% | viability, T/C [30]: 63.9% | viability, T/C [31]: 73% | viability, T/C [32]: 95.1% | viability, T/C [33]: 91.7% | viability, T/C [34]: 80.9% | viability, T/C [35]: 85.2% | viability, T/C [36]: 54.5%

CC1COCCN1c1cc(-c2ccnn2C)c2ccnc(-c3ccn[nH]3)c2n1 (stereo unspecified) + Cc1[nH]c2ccc(F)cc2c1-c1nc2c3cccnc3c3ncccc3c2[nH]1
IC50 (second compound 0.0316 µM): > 10 µM | IC50 (second compound 0.1 µM): > 10 µM | IC50 (second compound 0.316 µM): > 10 µM | IC50 (second compound 1 µM): 0.0316 µM | IC50 (second compound 3.16 µM): 0.0316 µM | IC50 (second compound 10 µM): 0.0316 µM | viability, T/C [1]: 84.4% | viability, T/C [2]: 58.8% | viability, T/C [3]: 46.1% | viability, T/C [4]: 42% | viability, T/C [5]: 52.8% | viability, T/C [6]: 87.2% | viability, T/C [7]: 83.3% | viability, T/C [8]: 64.9% | viability, T/C [9]: 41.6% | viability, T/C [10]: 33.7% | viability, T/C [11]: 50% | viability, T/C [12]: 93.7% | viability, T/C [13]: 101% | viability, T/C [14]: 58.1% | viability, T/C [15]: 45.3% | viability, T/C [16]: 36.8% | viability, T/C [17]: 66% | viability, T/C [18]: 75% | viability, T/C [19]: 80.9% | viability, T/C [20]: 51.9% | viability, T/C [21]: 41.1% | viability, T/C [22]: 37.5% | viability, T/C [23]: 75.3% | viability, T/C [24]: 86.6% | viability, T/C [25]: 60.6% | viability, T/C [26]: 55.9% | viability, T/C [27]: 41.5% | viability, T/C [28]: 42.6% | viability, T/C [29]: 73.2% | viability, T/C [30]: 91.5% | viability, T/C [31]: 62.8% | viability, T/C [32]: 57.8% | viability, T/C [33]: 43.1% | viability, T/C [34]: 47.1% | viability, T/C [35]: 82.8% | viability, T/C [36]: 84.2%

CC1COCCN1c1cc(C2(O)CC3CCC(C2)O3)c2cnn(-c3ccn[nH]3)c2n1 (stereo unspecified) + Cc1[nH]c2ccc(F)cc2c1-c1nc2c3cccnc3c3ncccc3c2[nH]1
IC50 (second compound 0.0316 µM): 0.0316 µM | IC50 (second compound 0.1 µM): > 10 µM | IC50 (second compound 0.316 µM): > 10 µM | IC50 (second compound 1 µM): > 10 µM | IC50 (second compound 3.16 µM): < 0.0316 µM | IC50 (second compound 10 µM): > 10 µM | viability, T/C [1]: 74.6% | viability, T/C [2]: 47.4% | viability, T/C [3]: 48.1% | viability, T/C [4]: 48% | viability, T/C [5]: 87.5% | viability, T/C [6]: 92% | viability, T/C [7]: 73.3% | viability, T/C [8]: 55.9% | viability, T/C [9]: 42.1% | viability, T/C [10]: 62.2% | viability, T/C [11]: 88% | viability, T/C [12]: 90.3% | viability, T/C [13]: 85.4% | viability, T/C [14]: 52.6% | viability, T/C [15]: 37.4% | viability, T/C [16]: 79.1% | viability, T/C [17]: 97.1% | viability, T/C [18]: 109% | viability, T/C [19]: 70.4% | viability, T/C [20]: 39.1% | viability, T/C [21]: 44.1% | viability, T/C [22]: 79.9% | viability, T/C [23]: 98.2% | viability, T/C [24]: 114% | viability, T/C [25]: 51.7% | viability, T/C [26]: 43.8% | viability, T/C [27]: 49.8% | viability, T/C [28]: 82.9% | viability, T/C [29]: 90.8% | viability, T/C [30]: 90.8% | viability, T/C [31]: 54.7% | viability, T/C [32]: 47.8% | viability, T/C [33]: 51.2% | viability, T/C [34]: 85.4% | viability, T/C [35]: 84.5% | viability, T/C [36]: 90.8%
